Assay results: patent US12152031B2, “Biodefense agents” (priority 2018, dated 2024)
Values after ≈ are worked out from the molar mass of the structure shown.

How the values were obtained:
Assay type in all cases: cell-based
Burkholderia mallei = experiment: microbe, parasite or virus in culture; settings: for MIC: read-out: MIC range
Bacillus anthracis = experiment: microbe, parasite or virus in culture; settings: for MIC: read-out: MIC range
Yersinia pestis = experiment: microbe, parasite or virus in culture; settings: for MIC: read-out: MIC range
Francisella tularensis = experiment: microbe, parasite or virus in culture; settings: for MIC: read-out: MIC range
[1] = system: Burkholderia pseudomallei; experiment: microbe, parasite or virus in culture; settings: for MIC50 / MIC90 / MIC: Burkholderia pseudomallei; for MIC: read-out: MIC range
Enterobacteriaceae = system: Enterobacteriaceae
E. coli DH10B = experiment: microbe, parasite or virus in culture; settings: Escherichia coli
[2] = system: E. coli DH10B mcr-1 transformant; experiment: microbe, parasite or virus in culture; settings: Escherichia coli

| Structure (SMILES) | MIC50 (Burkholderia mallei) [µg/mL] | MIC90 (Burkholderia mallei) [µg/mL] | MIC (Burkholderia mallei) [µg/mL] | MIC50 (Bacillus anthracis) [µg/mL] | MIC90 (Bacillus anthracis) [µg/mL] | MIC (Bacillus anthracis) [µg/mL] | MIC50 (Yersinia pestis) [µg/mL] | MIC90 (Yersinia pestis) [µg/mL] | MIC (Yersinia pestis) [µg/mL] | MIC50 (Francisella tularensis) [µg/mL] | MIC90 (Francisella tularensis) [µg/mL] | MIC (Francisella tularensis) [µg/mL] | MIC50 [1] [µg/mL] | MIC90 [1] [µg/mL] | MIC [1] [µg/mL] | peak of unimodal MIC distribution (Enterobacteriaceae) [µg/mL] | MIC (E. coli DH10B) [µg/mL] | MIC [2] [µg/mL] | MIC range [1] [µg/mL] |
| --- | --- | --- | --- | --- | --- | --- | --- | --- | --- | --- | --- | --- | --- | --- | --- | --- | --- | --- | --- |
| CC[C@H]1OC(=O)[C@H](C)[C@@H](O[C@H]2C[C@@](C)(OC)[C@@H](O)[C@H](C)O2)[C@H](C)[C@@H](O[C@@H]2O[C@H](C)C[C@H](N(C)C)[C@H]2O)[C@](C)(O)C[C@@H](C)CN(C)[C@H](C)[C@@H](O)[C@]1(C)O [Azithromycin, azithromycin, reference compound] | 0.5 (≈ 0.668 µM) | 1 (≈ 1.34 µM) | 0.06 to 1 (≈ 0.0801 to 1.34 µM) | – | – | – | – | – | – | – | – | – | – | – | – | – | – | – | – |
| C=CCN1[C@H](CCNC(C)=N)CCC[C@H]1c1ccc(-n2cc3cc(-c4cc(CCC[C@H](C)N)cc(Cl)c4F)[nH]c3nc2=O)cc1 [RX-D10] | 0.12 (≈ 0.19 µM) | 0.25 (≈ 0.395 µM) | 0.06 to 0.25 (≈ 0.0949 to 0.395 µM) | 0.12 (≈ 0.19 µM) | 0.25 (≈ 0.395 µM) | 0.008 to 0.25 (≈ 0.0127 to 0.395 µM) | 0.12 (≈ 0.19 µM) | 0.5 (≈ 0.791 µM) | 0.03 to 0.5 (≈ 0.0475 to 0.791 µM) | 0.12 (≈ 0.19 µM) | 0.5 (≈ 0.791 µM) | 0.03 to 2 (≈ 0.0475 to 3.16 µM) | 2 (≈ 3.16 µM) | 4 (≈ 6.33 µM) | 0.25 to 8 (≈ 0.395 to 12.7 µM) | – | – | – | – |
| CC(=N)NCC[C@@H]1CCC[C@@H](c2ccc(-n3cc4cc(-c5cc(CCC[C@H](C)N)cc(Cl)c5F)[nH]c4nc3=O)cc2)N1CCCF [RX-D3] | 0.12 (≈ 0.184 µM) | 0.25 (≈ 0.383 µM) | 0.03 to 0.25 (≈ 0.046 to 0.383 µM) | 0.12 (≈ 0.184 µM) | 0.12 (≈ 0.184 µM) | 0.03 to 0.25 (≈ 0.046 to 0.383 µM) | 0.12 (≈ 0.184 µM) | 0.25 (≈ 0.383 µM) | 0.06 to 0.5 (≈ 0.092 to 0.767 µM) | 0.12 (≈ 0.184 µM) | 0.25 (≈ 0.383 µM) | 0.015 to 2 (≈ 0.023 to 3.07 µM) | 2 (≈ 3.07 µM) | 4 (≈ 6.13 µM) | 0.5 to 8 (≈ 0.767 to 12.3 µM) | – | – | – | – |
| CSc1cc(-n2cc3cc(-c4cc(CCC[C@@H](N)C5CC5)cc(Cl)c4F)[nH]c3nc2=O)ccc1[C@@H]1CCC[C@@H](CCNC(C)=N)N1 [RX-D1] | 0.12 (≈ 0.181 µM) | 0.12 (≈ 0.181 µM) | 0.06 to 0.25 (≈ 0.0903 to 0.376 µM) | 0.06 (≈ 0.0903 µM) | 0.06 (≈ 0.0903 µM) | 0.008 to 0.12 (≈ 0.012 to 0.181 µM) | 0.12 (≈ 0.181 µM) | 0.25 (≈ 0.376 µM) | 0.008 to 0.25 (≈ 0.012 to 0.376 µM) | 0.12 (≈ 0.181 µM) | 0.25 (≈ 0.376 µM) | 0.06 to 0.5 (≈ 0.0903 to 0.753 µM) | 1 (≈ 1.51 µM) | 4 (≈ 6.02 µM) | 0.5 to 4 (≈ 0.753 to 6.02 µM) | – | – | – | – |
| CC(=N)NCC[C@@H]1CCC[C@@H](c2ccc(-n3cc4cc(-c5cc(CCC[C@H](C)N)cc(Cl)c5F)[nH]c4nc3=O)cc2C)N1 [RX-D8] | 0.06 (≈ 0.099 µM) | 0.12 (≈ 0.198 µM) | 0.03 to 0.25 (≈ 0.0495 to 0.412 µM) | ≤ 0.008 | ≤ 0.008 | 0.008 to 0.015 (≈ 0.0132 to 0.0247 µM) | 0.25 (≈ 0.412 µM) | 0.5 (≈ 0.825 µM) | 0.06 to 0.5 (≈ 0.099 to 0.825 µM) | 0.03 (≈ 0.0495 µM) | 0.06 (≈ 0.099 µM) | 0.004 to 0.12 (≈ 0.0066 to 0.198 µM) | 8 (≈ 13.2 µM) | > 8 | – | – | – | – | – |
| CSc1cc(-n2cc3cc(-c4cc(CCC[C@@H](N)C5CC5)cc(Cl)c4F)[nH]c3nc2=O)ccc1[C@@H]1CCC[C@@H](CCNC(C)=N)N1 [RX-04B, N-(2-((2S,6S)-6-(4-(6-(5-((R)-4-amino-4-cyclopropylbutyl)-3-chloro-2-fluorophenyl)-2-oxo-2,7-dihydro-3H-pyrrolo[2,3-d]pyrimidin-3-yl)-2-(methylthio)phenyl)piperidin-2-yl)ethyl)acetimidamide] | – | – | – | – | – | – | – | – | – | – | – | – | – | – | – | 1 | 0.5 (≈ 0.753 µM) | 0.5 (≈ 0.753 µM) | – |
| CC(=N)NCC[C@@H]1CCC[C@@H](c2ccc(-n3cc4cc(-c5cc(CCC[C@H](C)N)cc(Cl)c5F)[nH]c4nc3=O)cc2)N1CCCO [RX-D2] | 0.12 (≈ 0.185 µM) | 0.25 (≈ 0.384 µM) | 0.06 to 0.5 (≈ 0.0923 to 0.769 µM) | 0.06 (≈ 0.0923 µM) | 0.12 (≈ 0.185 µM) | 0.03 to 0.12 (≈ 0.0461 to 0.185 µM) | 0.25 (≈ 0.384 µM) | 1 (≈ 1.54 µM) | 0.03 to 1 (≈ 0.0461 to 1.54 µM) | 0.12 (≈ 0.185 µM) | 0.25 (≈ 0.384 µM) | 0.015 to 1 (≈ 0.0231 to 1.54 µM) | > 8 | > 8 | – | – | – | – | – |
| CC(C)(O/N=C(\C(=O)N[C@@H]1C(=O)N2C(C(=O)[O-])=C(C[n+]3ccccc3)CS[C@H]12)c1csc(N)n1)C(=O)O [Ceftazidime, ceftazidime, reference compound] | – | – | – | – | – | – | – | – | – | – | – | – | 1 (≈ 1.83 µM) | 1 (≈ 1.83 µM) | – | – | – | – | ≤0.03 to 32 |
